Experimental data: ChEMBL document CHEMBL5727769, “Tricyclic fused derivatives of 1-(cyclo)alkyl pyridin-2-one useful for the treatment of cancer” (2020)

Target: Bromodomain-containing protein 4 (Homo sapiens, UniProt O60885)
Assay: AlphaLISA Assay: Compounds were diluted by step-down dilution method (final concentration of DMSO was 1%) and added to the wells of a 384 well opti plate at desired concentrations. 5 nM BDR4-BD1 enzyme (produced in-house) and 12 nM of biotinylated substrate were added to the wells, covered and incubated at room temperature (RT) for 1 h. At the end of 1 h 250 ng of GSH acceptor beads were added to the well and incubated for 1 h at RT; then 500 ng of streptavidin donor beads were added and incubated again for 1 h at RT. Plates were read in a Pherastar reader at 680 nm excitation and 570 nm emission

IC50: 1.6 nM
Structure (SMILES): CCNC(=O)CC1N=C(c2ccc(Cl)cc2)c2cc(OC)ccc2-c2cn(C)c(=O)cc21 (racemic)
